{
  "source": "patent US10233209B2",
  "about": "“Inhibitors of the farnesoid x receptor and uses in medicine” (The United States of America, as represented by the …, priority 2013, dated 2019)",
  "key": {"[1]": {"tested_on": "HFD-treated C57BL/6N mice", "assay": "Gly-MCA in mice fed a high-fat diet (prevention of obesity, insulin resistance, NAFLD)", "type": "in vivo, mouse", "description": "(§1) High-fat diet (HFD) (60% kcal consisting of fat) was purchased from Bioserv. […] Fxr^fl/fl and Fxr^ΔIE (Kim et al., J. Lipid Res. 48:2664-2672, 2007) mice were backcrossed with C57BL/6N mice for over 10 generations. For the antibiotic (the combination of bacitracin, neomycin, and streptomycin) study, male C57BL/6N mice from 6 weeks of age were fed a high-fat diet (“HFD) and administered 0.1% (w/v) of each compound (the combination of bacitracin, neomycin, and streptomycin) in the drinking water. […] For TβMCA in vivo, male C57BL/6N mice from 6 weeks of age were fed a HFD and treated with the antibiotics (0.1% of each compound of bacitracin, neomycin, and streptomycin combination) for 3 days. Vehicle (saline), TCA (400 mg/kg body weight, dissolved in saline) or a combination of TCA and TβMCA (400 mg/kg body weight of each compound, dissolved in saline) were orally administered to the mice and followed by a second dose 12 h later. The mice were killed 2 h later for tissue collection. For the Gly-MCA study, Gly-MCA was custom synthesized. Bacon-flavored dough pills were produced as described (Walker et al., Toxicol. Appl. Pharmacol. 260:65-69, 2012) for oral administration of Gly-MCA (0.25 mg Gly-MCA/pill, dose of 10 mg/kg). Mice were trained to eat the dough pills prior to the study. For the prevention of obesity, insulin resistance and NAFLD, male wild-type (WT) C57BL/6N mice, 6- to 8-weeks-old, were fed a high-fat diet (Bio-Serv, Frenchtown, N.J.; 60 kcal % fat) from the age of 6 weeks and were orally administered with vehicle (control pills) or Gly-MCA (0.25 mg/pill/day, dose 10 mg/kg). C57BL/6N mice fed a high-fat diet for 12 weeks were administered (0.25 mg Gly-MCA/pill, dose of 5 mg/kg). Leptin-deficient db/db mice, 6- to 8-weeks-old, fed a chow diet, were administered Gly-MCA (0.25 mg/pill/day, 10 mg/kg). Mice were housed individually in their home cages. Cumulative food intake and TEEbal were measured for 1 week in vehicle and Gly-MCA-treated mice from 6 to 7 weeks of HFD. TEEbal was measured as previously described (Ravussin et al., Int. J. Obesity 37:399-403, 2013).\nThe mucosa of intestine was gently scraped and liver was taken and both were flash frozen in liquid nitrogen and stored at −80° C. until RNA was prepared. RNA was extracted from frozen intestine and liver using TRIzol reagent (Invitrogen, Carlsbad, Calif.). cDNA was synthesized from 1 μg total RNA using Superscript II reverse transcriptase (Invitrogen, Carlsbad, Calif.). qPCR primers were designed with qPrimerDepot. Measured mRNA levels were normalized to those of 18S ribosomal RNA and expressed as fold change relative to those of control group.\nLipidomics analysis: For serum lipidomics analysis 25 μl serum were extracted by 4-fold cold chloroform:methanol (2:1) solution containing 2 μM LPC (17:0), PC (17:0), SM (17:0) and CER (17:0) (Avanti Polar Lipids, Alabaster, Ala.) as internal standards. The samples were vortexed for 30 s and then allowed to stand for 5 min at room temperature. The mixture was centrifuged at 13,000 rpm for 5 min and then the lower organic phase was collected and evaporated at room temperature under vacuum. The residue was dissolved in chloroform:methanol (1:1), followed by diluting with isopropanol:acetonitrile:H2O (2:1:1) containing 2 μM PC (17:0) prior to UPLC-MS analysis. For tissue lipidomics analysis, about 50 mg of accurately weighted tissues were homogenized with 700 μL methanol: H2O (4:3) solution and then extracted using 800 μL chloroform containing 2 μM LPC (17:0), SM (17:0) and CER (17:0) as internal standards. The homogenate was incubated at 37° C. for 20 min followed by centrifuged for 20 min at 13,000 rpm. The lower organic phase was transferred to a new tube and dried under vacuum. The residue was suspended with 100 chloroform:methanol (1:1) solution and then diluted with isopropanol:acetonitrile:H2O (2:1:1) solution containing 2 μM PC (17:0) before injection. […]"}, "HFD-induced obese mice": {"tested_on": "HFD-induced obese mice", "assay": "Gly-MCA in C57BL/6N mice made obese by 12 weeks of high-fat diet", "type": "in vivo, mouse", "details": "5 mg/kg", "description": "as §1"}, "[2]": {"assay": "liver toxicity 24 h after Gly-MCA dosing (ALT, AST)", "type": "in vivo, mouse", "details": "1, 5, 50 mg/kg; after 24 h; vs vehicle", "method": "Mice were dosed with vehicle or Gly-MCA at 1 mg/kg, 5 mg/kg, and 50 mg/kg. After 24 h, […] (ALT) and […] (AST) levels were determined and the results shown in FIG. 37."}, "[3]": {"assay": "Gly-MCA incubation with fecal extract (hydrolysis by gut bacteria)", "type": "in vitro ADME, mouse", "details": "50 μM Gly-MCA; 0.1 mg/mL fecal extract; TβMCA positive control", "method": "Fecal proteins were prepared from the fecal sample (0.5 g) in pH 7.4 PBS (5.0 ml) using sonication. Incubation was carried out in 3 mM sodium acetate buffer, pH 5.2, containing 0.1 mg/ml fecal protein and 50 μM Gly-MCA or T-β-MCA in a final volume of […]. After a 20-min incubation at 37° C., the samples were plunged into dry ice to stop the reaction. 100 of μL methanol was directly added to the […] reaction mixture. After centrifuging at 14,000 g for 20 min, […] of the supernatant was transferred to an autosampler vial subjected to analysis by a UPLC system coupled with a XEVO triple quadrupole tandem mass spectrometer (Waters Corp., Milford, Mass.).\nFecal extracts were prepared as described above. Gly-MCA (50 μM) was incubated with fecal extract (0.1 mg/mL). The negative control was fecal extract alone. The positive control was fecal extract (0.1 mg/mL) and TβMCA acid (50 μM)."}, "db/db mice": {"tested_on": "db/db mice", "assay": "Gly-MCA in leptin receptor-deficient (db/db) mice", "type": "in vivo, mouse", "description": "as §1"}, "[4]": {"assay": "Gly-MCA in mouse ileum after oral gavage", "type": "in vivo", "details": "oral gavage 0, 1, 5, 50 mg/kg in corn oil", "method": "Gly-MCA was given to mice via oral gavage at dosages of 0, 1, 5, and 50 mg/kg of Gly-MCA, with the Gly-MCA dosed in corn oil. Gly-MCA was detected using ultra performance liquid chromatography-electrospray ionization-quadrupole time-of-flight mass spectrometry (UPLC-ESI-QTOFMS)."}},
  "note": "Entries after “also recorded” stand apart in the source; their conditions may differ.",
  "data": [
    {"smiles": "C[C@H](CCC(=O)NCC(=O)O)[C@H]1CC[C@H]2[C@@H]3[C@@H](O)[C@@H](O)[C@@H]4C[C@H](O)CC[C@]4(C)[C@H]3CC[C@]12C", "note": "[Gly-MCA, glycine-β-muricholic acid]", "values": [
      {"measurement": "Gly-MCA levels in the feces", "setting": "[1]; Gly-MCA treatment for 9 weeks", "value": "markedly increased"},
      {"measurement": "Gly-MCA levels in the ileum", "setting": "[1]; Gly-MCA treatment for 9 weeks", "value": "markedly increased"},
      {"measurement": "liver weights", "setting": "[1]; HFD", "value": "decreased"},
      {"measurement": "hepatic lipid droplets (liver histology)", "setting": "[1]; HFD 7 weeks", "value": "marked reduction in hepatic lipid droplets"},
      {"measurement": "Shp and Fgf15 mRNAs in the ileum", "setting": "[1]; HFD 9 weeks", "value": "decreased"},
      {"measurement": "expression of Shp mRNA in the liver", "setting": "[1]; HFD 9 weeks", "value": "similar"},
      {"measurement": "intestinal mRNAs of ceramide de novo synthesis-related genes (Sptic3, Cers4, Degs1, Smpd3)", "setting": "[1]; HFD 9 weeks", "value": "significantly lower"},
      {"measurement": "serum ALT levels", "setting": "[1]; HFD 9 weeks", "value": "significantly decreased"},
      {"measurement": "serum AST levels", "setting": "[1]; HFD 9 weeks", "value": "significantly decreased"},
      {"measurement": "serum triglyceride levels", "setting": "[1]; HFD 9 weeks", "value": "remained similar"},
      {"measurement": "body weight gain", "setting": "[1]; HFD, 10 mg/kg oral, after one week of treatment", "value": "reduced body weight gain"},
      {"measurement": "ITT: insulin sensitivity", "setting": "[1]; HFD, 6 to 7 weeks", "value": "significantly increased"},
      {"measurement": "energy expenditure (TEEbal)", "setting": "[1]; HFD, 6 to 7 weeks", "value": "increased the energy expenditure significantly"},
      {"measurement": "food intake", "setting": "[1]; HFD, 6 to 7 weeks", "value": "comparable"},
      {"measurement": "absolute fat mass (NMR)", "setting": "[1]; HFD, after 7 weeks of treatment", "value": "significantly decreased"},
      {"measurement": "hepatic triglyceride contents decreased to", "setting": "[1]; HFD, relative to vehicle", "value": "approximately 51%"},
      {"measurement": "GTT: blood glucose levels after glucose loading", "setting": "[1]; after 6 weeks of HFD", "value": "significantly reduced blood glucose levels"},
      {"measurement": "body weight gain", "setting": "HFD-induced obese mice; HFD-induced obese mice, from two weeks of treatment", "value": "reduced body weight gain"},
      {"measurement": "absolute fat mass (NMR)", "setting": "HFD-induced obese mice; obese mice, 6 weeks", "value": "significantly decreased"},
      {"measurement": "hepatic lipid droplets (liver histology)", "setting": "HFD-induced obese mice; obese mice, 6 weeks", "value": "marked amelioration in hepatic lipid droplets"},
      {"measurement": "liver weights", "setting": "HFD-induced obese mice; obese mice, 6 weeks", "value": "reduced"},
      {"measurement": "liver toxicity (serum ALT and AST levels)", "setting": "[2]", "value": "do not develop significant liver toxicity; also recorded: did not exhibit significant liver toxicity"},
      {"measurement": "stability: hydrolysis to β-MCA on incubation with fecal extract", "setting": "[3]", "value": "stable in the intestine"},
      {"measurement": "absolute fat mass (NMR)", "setting": "db/db mice; 6 weeks", "value": "significantly decreased"},
      {"measurement": "hepatic lipid droplets (liver histology)", "setting": "db/db mice; 6 weeks", "value": "significant decrease in hepatic lipid droplets"},
      {"measurement": "liver TG contents", "setting": "db/db mice; 6 weeks", "value": "dramatically improved"},
      {"measurement": "liver weights", "setting": "db/db mice; 6 weeks", "value": "decreased"},
      {"measurement": "serum ALT levels", "setting": "db/db mice; 6 weeks", "value": "significantly decreased"},
      {"measurement": "serum AST levels", "setting": "db/db mice; 6 weeks", "value": "significantly decreased"},
      {"measurement": "serum triglyceride levels", "setting": "db/db mice; 6 weeks", "value": "remained similar"},
      {"measurement": "body weight", "setting": "db/db mice; Gly-MCA 6 weeks, 10 mg/kg", "value": "reduced body weight"},
      {"measurement": "Gly-MCA detected in mouse ileum (stability in intestine)", "setting": "[4]", "value": "stable in the intestine"}
    ]}
  ]
}
